Experiment [1] deals with A549. Nature of the experiment: cells. The conditions noted are these: Homo sapiens, A549, 72 h, read-out: GI.
Experiment [2] has as its system A549. The conditions noted are these: Homo sapiens, 10 uM.
In experiment [3] the test system is A549. Nature of the experiment: Cell cycle arrest in human A549 cells assessed as increase in G1 population at 2 uM measured after 24 hrs by propidium iodide staining based flow cytometric analysis. It counts as functional.
Experiment [4] relates to A549. Nature of the experiment: Cell cycle arrest in human A549 cells assessed as decrease in S population at 2 uM measured after 24 hrs by propidium iodide staining based flow cytometric analysis. It counts as functional. Background: In flow cytometry, cells or beads pass a laser one at a time.
The subject of experiment [5] is A549. Put plainly: Cell cycle arrest in human A549 cells assessed as accumulation at sub-G1 population at 6 to 8 uM by propidium iodide staining based flow cytometric analysis. It counts as functional. Particulars: TDE = time-dependent effect.
Experiment [6] has as its system A549. Put plainly: cells. Particulars: Homo sapiens, A549, 72 h.
Description: Growth inhibition of human A549 cells after 72 hrs by Alamarblue assay
In experiment [7] the target is T1, Amine oxidase [flavin-containing] A (Homo sapiens, UniProt P21397).
T1 sequence (P21397 whole entry): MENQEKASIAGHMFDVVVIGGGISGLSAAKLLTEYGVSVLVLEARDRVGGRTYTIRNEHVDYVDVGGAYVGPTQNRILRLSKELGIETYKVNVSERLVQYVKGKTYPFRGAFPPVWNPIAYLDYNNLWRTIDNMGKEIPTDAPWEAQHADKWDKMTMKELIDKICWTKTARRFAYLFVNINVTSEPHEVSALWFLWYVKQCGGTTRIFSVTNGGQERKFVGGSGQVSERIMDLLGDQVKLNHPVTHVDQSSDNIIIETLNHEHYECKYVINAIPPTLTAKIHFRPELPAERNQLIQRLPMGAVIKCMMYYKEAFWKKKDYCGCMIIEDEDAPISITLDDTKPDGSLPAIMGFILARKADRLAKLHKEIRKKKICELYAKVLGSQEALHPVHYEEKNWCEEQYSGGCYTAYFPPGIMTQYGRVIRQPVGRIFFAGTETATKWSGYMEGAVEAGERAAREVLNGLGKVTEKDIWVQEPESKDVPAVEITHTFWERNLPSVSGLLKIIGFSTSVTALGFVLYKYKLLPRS
Put plainly: biochemical.
Description: Inhibition of recombinant human MAO-A expressed in baculovirus infected BTI insect cells using (4S)-4,5-dihydro-2-(6-hydroxybenzothiazolyl)-4-thiazolecarboxylic acid as substrate measured after 60 mins by chemiluminescence assay

The target in experiment [8] is T2, Amine oxidase [flavin-containing] B (Homo sapiens, UniProt P27338).
T2 sequence (P27338 whole entry): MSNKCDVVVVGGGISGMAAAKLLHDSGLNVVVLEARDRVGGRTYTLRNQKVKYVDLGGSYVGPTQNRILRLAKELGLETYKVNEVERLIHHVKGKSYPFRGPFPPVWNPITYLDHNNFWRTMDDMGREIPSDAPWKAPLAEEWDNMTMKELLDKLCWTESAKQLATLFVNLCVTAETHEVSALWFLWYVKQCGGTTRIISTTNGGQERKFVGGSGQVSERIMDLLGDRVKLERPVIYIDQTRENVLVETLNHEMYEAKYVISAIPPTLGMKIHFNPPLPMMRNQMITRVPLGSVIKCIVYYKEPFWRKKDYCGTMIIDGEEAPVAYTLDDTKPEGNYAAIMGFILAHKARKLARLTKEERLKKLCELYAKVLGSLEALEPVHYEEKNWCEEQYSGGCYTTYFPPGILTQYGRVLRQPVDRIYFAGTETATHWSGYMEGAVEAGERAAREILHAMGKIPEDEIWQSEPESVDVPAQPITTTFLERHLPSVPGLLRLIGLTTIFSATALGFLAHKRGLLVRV
Nature of the experiment: biochemical.
Description: Inhibition of recombinant human MAO-B expressed in baculovirus infected BTI insect cells using (4S)-4,5-dihydro-2-(6-hydroxybenzothiazolyl)-4-thiazolecarboxylic acid as substrate measured after 60 mins by chemiluminescence assay

Broadly, the GI50 is the concentration giving 50% growth inhibition. For orientation: IC50 means the midpoint of a concentration-inhibition curve. A higher IC50 goes with a need for much substance.

The source made the active and inactive calls. The calls are words filed in the database; no cut-off is given here.

In the case of `CNC(=O)c1cccc(-c2ccc([C@@H]3C[C@H]3NCCCCC3C(=O)N(Cc4ccccc4)CCN(c4ccccc4)C3=O)cc2)c1` (relative stereo), the inhibition of growth at 10 µM with A549 [1] was found to be 26%.

Take `O=C(N[C@@H](CCCCN[C@@H]1C[C@H]1c1ccccc1)C(=O)NCc1ccccc1)c1ccccc1`: the “growth inhibition (GI)” value in the experiment with A549 [2] is “inactive”.

Consider `CNS(=O)(=O)c1cccc(-c2ccc([C@@H]3C[C@H]3NCCCCC3C(=O)N(Cc4ccccc4)CCN(c4ccccc4)C3=O)cc2)c1` (relative stereo), for which the inhibition of growth at 10 µM in the experiment on A549 [1] was found to be 16%.

For `O=C1C(CCCCN[C@@H]2C[C@H]2c2ccccc2)C(=O)N(c2ccc(-c3ccccc3)cc2)CCN1Cc1cccc(Cl)c1` (relative stereo), the result with A549 [3] and in the experiment on A549 [4] was Active. Besides, the Activity result with A549 [5] was “Tde”. Moreover, the inhibition of growth at 10 µM in the experiment with A549 [1] came out at 100%. In addition, in the experiment with A549 [6], the GI50 turned out to be 5.8 µM. For the same compound, the IC50 in experiment [7] and in experiment [8] was greater than 100 µM in each case.

For the compound `O=C(N[C@@H](CCCCN[C@@H]1C[C@H]1c1ccccc1)C(=O)NCc1cccc(Cl)c1)c1ccc(-c2ccccc2)cc1`, in the experiment with A549 [1], the inhibition of growth at 10 µM is 100%. For the same compound, in the experiment with A549 [6], halving of growth (GI50) required 8.6 µM. Further, the 50% inhibitory concentration (IC50) in experiment [7] and in experiment [8] was greater than 100 µM in each case.

As for `CNC(=O)c1cccc(-c2ccc([C@@H]3C[C@H]3NCCCCC3C(=O)N(Cc4cccc(Cl)c4)CCN(c4ccc(-c5ccccc5)cc4)C3=O)cc2)c1` (relative stereo), the inhibition of growth at 10 µM in the experiment on A549 [1] came to 26%.

With `COc1cccc(-c2ccc([C@@H]3C[C@H]3NCCCCC3C(=O)N(Cc4ccccc4)CCN(c4ccccc4)C3=O)cc2)c1` (relative stereo), the inhibition of growth at 10 µM in the experiment on A549 [1] was found to be 16%.

Values taken from ChEMBL document CHEMBL4219062, “Design, synthesis and evaluation of γ-turn mimetics as LSD1-selective inhibitors” (Bioorg Med Chem, 2018).
